This is an account of results in article PMC11684029, “Discovery of VU6024578/BI02982816: An mGlu1 Positive Allosteric Modulator with Efficacy in Preclinical Antipsychotic and Cognition Models” (Journal of Medicinal Chemistry, 2024).

Each structure is given as a SMILES string.

One data set is described as follows: brain homogenate binding. The data set is classed as in vitro ADME, mouse. The conditions noted are these: fraction unbound.
The next data set is described as follows: rat IP PBL study. The data set is classed as in vivo. The conditions noted are these: 3 mg/kg IP, at Tmax. An excerpt: Thus, 19d was a stable chemical entity in vivo. […] Overall, the rat PK and CNS penetration was supportive of in vivo work and progression down the development flow-chart.
The next data set concerns the target T1, Adenosine A1 (Homo sapiens, UniProt P30542).
T1 construct: Eurofins
The experiment in a line: Eurofins radioligand binding panel. Particulars: antagonist radioligand. An excerpt:
(§1) Table S1. Eurofins Lead Profiling Screen Data
(§2) This is a radioligand binding panel of 80 targets including GPCRs, ion channels, transporters and nuclear hormones. Biochemical assay results are presented as the percent inhibition of specific […]
(§3) Results showing an inhibition or stimulation higher than 50% are considered to represent significant effect and are highlighted […]
(§4) Target / Protein Species % Inhibition at 10

A short description of data set [1]: plasma protein binding, equilibrium dialysis. The data set is classed as in vitro ADME, rat. Particulars: fraction unbound. As to the method: The protein binding of each compound was determined in plasma via equilibrium dialysis employing RED Plates (ThermoFisher Scientific, Rochester, NY). Plasma was added to the 96 well plate containing test compound and mixed thoroughly for a final concentration of 5 μM. Subsequently, an aliquot of the plasma-compound mixture was transferred to the cis chamber (red) of the RED plate, with an phosphate buffer (25 mM, pH 7.4) in the trans chamber. The RED plate was sealed and incubated for 4 h at 37 °C with shaking. At completion, aliquots from each chamber were diluted 1:1 with either plasma (cis) or buffer (trans) and transferred to a new 96 well plate, at which time ice-cold acetonitrile containing internal standard (50 ng/mL carbamazepine) (2 volumes) was added to extract the matrices. The plate was centrifuged (3000 rcf, 10 min) and supernatants transferred and diluted 1:1 (supernatant: water) into a new 96 well plate, which was then sealed in preparation for LC/MS/MS analysis. Each compound was assayed in triplicate within the same 96-well plate. Fraction unbound was determined using the following equation [drawing 1]
(In equilibrium dialysis free small molecules cross a membrane that holds back macromolecules.)

For another data set, the target named is T2, 5-HT1A (Homo sapiens, UniProt P08908).
T2 construct: Eurofins
Nature of the data set: Eurofins radioligand binding panel. Particulars: agonist radioligand.
Source text: as §1, §2, §3, §4
(§5) Adenosine A1 (antagonist radioligand) human 8
(§6) Adenosine A2A (agonist radioligand) human -1
(§7) Adenosine A3 (agonist radioligand) human 23
(§8) Adrenergic alpha 1 (non-selective) (antagonist radioligand) rat 19
(§9) Adrenergic alpha 2 (non-selective) (antagonist radioligand) rat 1
(§10) Adrenergic beta 1 (agonist radioligand) human 1
(§11) Adrenergic beta 2 (antagonist radioligand) human -1
(§12) AT1 (antagonist radioligand) human -1
(§13) AT2 (agonist radioligand) human 2 […]
(§14) BB (non-selective) (agonist radioligand) rat -20
(§15) B2 (agonist radioligand) human 7
(§16) CGRP (agonist radioligand) human 1
(§17) CB1 (agonist radioligand) human 0
(§18) CCK1 (CCKA) (agonist radioligand) human 7
(§19) CCK2 (CCKB) (agonist radioligand) human -4

In another data set the target is T3, EP4 (Homo sapiens, UniProt P35408).
T3 construct: Eurofins
The experiment in a line: Eurofins radioligand binding panel. Particulars: agonist radioligand.
Source text: as §1, §2, §3, §4, §5, §6, §7, §8, §9, §10, §11, §12, §13, §14, §15, §16, §17, §18, §19

A further data set has as its system Wistar rats. Nature of the data set: qEEG telemetry recordings. The data set is classed as in vivo. The conditions noted are these: rat. As to the method:
These effects were most pronounced between 30 and 120 min post treatment (Figure 11C).
Data are expressed as mean ± SEM and were analyzed by one- and two-way ANOVA followed by Dunnett’s Multiple Comparisons tests (*p < 0.05, **p < 0.01, ***p < 0.001 versus vehicle).
Wistar rats using a telemetry system (Data Sciences International DSI, USA).[20] Telemetric transmitters (F40-EET, Data Sciences International DSI, USA) were implanted intraperitoneally into male Wistar rats. EEG electrodes were placed supradurally above the hippocampus and two more electrodes were implanted into the neck muscle in order to measure the electromyography (EMG) signal required for differentiation between different vigilance states. Telemetric EEG recordings were performed during the light phase in the rats’ home cage environment. EEG activity was sampled at 500 Hz with a hardware filter cutoff of 50 Hz. Data were recorded continuously for 24 h, but only 1 h before compound treatment (baseline), the first 4 h after compound treatment plus an additional hour (+24 h time point) have been analyzed. Effects of treatment with 19d (1, 10 mg/kg, p.o., n = 14, applied 2 h after starting the recording) were determined on motor activity, body temperature, vigilance states and EEG power spectra using the EEG analysis software NeuroScore (Data Sciences International DSI, USA). The rats were tested in a crossover study design with a two-day washout period between two treatments.[20]

The next data set concerns Sprague–Dawley rats. The experiment in a line: spontaneous locomotion. The data set is classed as in vivo. Particulars: rat, doses up to 10 mg/kg p.o. As to the method: In order to enable our target validation work, we first profiled PAM 19d in a rat locomotor battery to ensure that pharmacodynamic efficacy was not mistaken for gross effects on locomotion.[20] […] PK was performed in parallel to establish a PK/PD relationship.[24]
Adult male Sprague–Dawley rats were administered VU6024578 (1–10 mg/kg p.o.) or vehicle and were tested in the […]. Seventy minutes later the animals were placed into the activity chambers (Med Associates) for 30 min.

T1 sequence (P30542 whole entry): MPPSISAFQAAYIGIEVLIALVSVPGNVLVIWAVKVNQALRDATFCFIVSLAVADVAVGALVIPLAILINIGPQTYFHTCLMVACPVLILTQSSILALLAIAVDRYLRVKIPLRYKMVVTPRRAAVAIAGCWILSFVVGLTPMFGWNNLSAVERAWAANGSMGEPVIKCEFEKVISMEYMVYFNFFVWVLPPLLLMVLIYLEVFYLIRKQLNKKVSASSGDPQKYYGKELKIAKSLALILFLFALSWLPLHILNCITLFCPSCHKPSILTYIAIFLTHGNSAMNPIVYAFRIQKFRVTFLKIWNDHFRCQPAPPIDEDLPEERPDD
T2 sequence (P08908 whole entry): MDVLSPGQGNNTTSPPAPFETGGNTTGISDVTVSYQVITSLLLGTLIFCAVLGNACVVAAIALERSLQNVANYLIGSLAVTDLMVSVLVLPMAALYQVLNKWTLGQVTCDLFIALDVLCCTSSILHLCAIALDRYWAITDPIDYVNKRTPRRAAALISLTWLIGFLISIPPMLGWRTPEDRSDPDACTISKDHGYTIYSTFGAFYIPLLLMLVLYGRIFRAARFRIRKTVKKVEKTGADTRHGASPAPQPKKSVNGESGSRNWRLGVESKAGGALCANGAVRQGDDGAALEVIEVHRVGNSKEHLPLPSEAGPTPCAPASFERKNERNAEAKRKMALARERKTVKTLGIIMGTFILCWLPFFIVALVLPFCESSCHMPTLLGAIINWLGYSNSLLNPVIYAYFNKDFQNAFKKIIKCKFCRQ
T3 sequence (P35408 whole entry): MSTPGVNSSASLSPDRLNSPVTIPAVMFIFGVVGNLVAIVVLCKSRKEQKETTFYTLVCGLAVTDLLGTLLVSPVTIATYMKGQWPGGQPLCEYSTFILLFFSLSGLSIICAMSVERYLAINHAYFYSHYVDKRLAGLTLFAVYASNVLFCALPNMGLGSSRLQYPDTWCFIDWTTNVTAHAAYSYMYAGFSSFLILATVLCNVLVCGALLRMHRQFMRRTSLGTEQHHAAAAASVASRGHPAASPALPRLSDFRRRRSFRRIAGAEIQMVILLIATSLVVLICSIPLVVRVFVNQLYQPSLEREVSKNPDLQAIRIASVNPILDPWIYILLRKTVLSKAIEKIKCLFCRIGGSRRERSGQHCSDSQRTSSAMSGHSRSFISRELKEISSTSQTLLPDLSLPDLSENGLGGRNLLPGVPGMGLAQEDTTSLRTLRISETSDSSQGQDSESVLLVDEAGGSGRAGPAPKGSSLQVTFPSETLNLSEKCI

For orientation: inhibition means the share of the control response that was lost under treatment. A lower inhibition goes with a weak effect. Regarding `Cn1nc(-c2ccnn2C)cc1CNC(=O)c1cc(-c2ccco2)ccc1Cl` [Compound 19d, 2-Chloro-N-((1,2′-dimethyl-1H,2’H-[3,3′-bipyrazol]-5-yl)methyl)-5-(furan-2-yl)benzamide], the “fu (brain), mouse” value in “brain homogenate binding” amounted to 0.081. The “Br[unbound]” value in “rat IP PBL study” is reported as 68 nM. Moreover, the inhibition at 10 µM at Adenosine A1 amounted to 8%; on 5-HT1A, 51%; on EP4 it was 62%. The rat fuplasma in data set [1] came out at 0.041. Further, in the data set on Wistar rats (10 mg/kg p.o.), the body temperature entry is “no measurable changes”. The EEG power spectra entry in the data set on Wistar rats (10 mg/kg p.o., 60 to 240 min post treatment) was “consistent reduction of delta, alpha and beta power”. Besides, the motor activity result in the data set with Wistar rats (10 mg/kg p.o., maximum within first 120 min) was “significantly increased”. For the same compound, the “time spent in NREM and REM sleep” value in the data set with Wistar rats (higher dose (10 mg/kg p.o.)) was “reduction”. Moreover, the “time spent in active and quiet wake states” value with Wistar rats (higher dose (10 mg/kg p.o.)) was “significant increase”. For the same compound, the spontaneous locomotion entry in the data set on Sprague–Dawley rats was “lack of effect”.
